Experimental data taken from paper PMC10451629, “Evaluation of the Effects of Heteroaryl Ethylene Molecules in Combination with Antibiotics: A Preliminary Study on Control Strains” (Antibiotics, 2023).
≈ marks a conversion by molar mass, not a printed value. Where “and” joins values, the source holds several entries; their conditions need not be identical. Equal entries are not always repeated. Where two headings read alike, the source gives them in different places.

Tests used:
[1] = test system: S. aureus ATCC BAA-1556 USA300; experiment: Broth microdilution MIC; assay type: cell-based, Staphylococcus aureus; conditions: Staphylococcus aureus, S. aureus ATCC BAA-1556 USA300; substance alone
[2] = test system: A. baumannii ATCC 17978; experiment: Broth microdilution MIC; assay type: cell-based; conditions: Acinetobacter baumannii, ATCC17978, substance alone
[3] = test system: P. aeruginosa ATCC 27853; experiment: Broth microdilution MIC; assay type: cell-based, Pseudomonas aeruginosa; conditions: substance alone
[4] = test system: K. pneumoniae ATCC 700603; experiment: Broth microdilution MIC; assay type: cell-based, Klebsiella pneumoniae; conditions: for MIC: substance alone
[5] = test system: E. coli ATCC 25922; experiment: Broth microdilution MIC; assay type: cell-based; conditions: Escherichia coli, ATCC25922, substance alone, read-out: MIC
[6] = test system: CaCo-2 (ATCC HTB-37) colon–rectal cancer cell line; experiment: MTT cytotoxicity assay on CaCo-2 cells; assay type: cell-based, human; conditions: for IC50: Homo sapiens
Protocol: To fully assess the biological activity of the new molecules, they were tested at different concentrations on the CaCo-2 (ATCC HTB-37) colon–rectal cancer cell line. These human cancer cells were exposed to compound solutions ranging in concentration from 100 µM to 0.01 µM. As a reference compound for these assays, we used 5-Fluorouracil (5-FU), a pyrimidine analog from the antimetabolite family.
The MTT assay was also performed for the selected antibiotics to evaluate the effect of their combined treatment with PB4.
To evaluate the effect of the heteroaryl ethylene compounds and the antibiotics, an MTT ([3-(4,5-dimethylthiazol-2-yl)-2,5-diphenyltetrazolium bromide]) assay was performed as previously described. […] Both concentrations were also tested in combination with PB4 0.2 µM. All antibiotics were provided by Thermo Scientific^TM Oxoid^TM, Basingstoke, UK. Twenty-four hours after plating, the cells were treated with 20 μL of each solution. Untreated cells were used as controls. […] The IC50 values were calculated by nonlinear regression analysis using GraphPad Prism 6.0 software.

[7] = test system: S. aureus ATCC 12598; experiment: Broth microdilution MIC; assay type: cell-based, Staphylococcus aureus; conditions: for MIC: Staphylococcus aureus, ATCC12598, S. aureus ATCC 12598, substance alone, read-out: MIC
[8] = test system: E. faecalis ATCC 29212; experiment: Broth microdilution MIC; assay type: cell-based, Enterococcus faecalis; conditions: for MIC: substance alone
[9] = test system: S. aureus ATCC 29213; experiment: Broth microdilution MIC; assay type: cell-based; conditions: Staphylococcus aureus, ATCC29213, S. aureus ATCC 29213; substance alone; read-out: MIC
[10] = test system: S. enterica ATCC 14028; experiment: Broth microdilution MIC; assay type: cell-based; conditions: Salmonella enterica, ATCC14028, substance alone
[11] = test system: Gram-positive strains; experiment: Broth microdilution MIC, summary over Gram-positive strains; assay type: cell-based
[12] = test system: S. aureus ATCC29213; conditions: QSAR dataset; cited from earlier work
[13] = test system: all tested strains; experiment: Broth microdilution MIC, summary over all tested strains; assay type: cell-based; conditions: for MIC reduction in combination with PB4: all tested bacterial strains, antibiotic + PB4
[14] = test system: CaCo2 colon-rectal cancer cell line; design: method as in in-house dataset; Log(IC50) 48h: unit not given here; conditions: in-house dataset previously tested by the authors' groups, ref in-house dataset, cited from earlier work
[15] = test system: Gram-negative bacteria; experiment: Broth microdilution MIC, summary over Gram-negative bacteria; assay type: cell-based; conditions: summary in text over Gram-negative bacteria
[16] = Pseudomonas aeruginosa, ATCC27853, P. aeruginosa ATCC 27853, read-out: MIC
[17] = Klebsiella pneumoniae, ATCC700603, K. pneumoniae ATCC 700603, read-out: MIC
[18] = Caco-2, 24 h, CaCo-2 cell line, MTT, 24 h of treatment, read-out: IC50 at 24 h
[19] = Caco-2, 48 h, CaCo-2 cell line, MTT, 48 h of treatment, read-out: IC50 at 48 h
[20] = Enterococcus faecalis, ATCC29212, E. faecalis ATCC 29212, read-out: MIC

| SMILES | MIC [1] | MIC [2] | MIC [3, 16] | MIC [4, 17] | MIC [5] | IC50 [6, 18] [nM] | IC50 [6, 19] [nM] | MIC [7] | MIC [8, 20] | MIC [9] | MIC [10] | MIC reduction in combination with PB4 [13] | further results |
| --- | --- | --- | --- | --- | --- | --- | --- | --- | --- | --- | --- | --- | --- |
| C[n+]1c(/C=C/c2ccc3ccccc3c2)cccc1/C=C/c1ccc2ccccc2c1 [GC-VII-39] | > 128 µg/mL and > 244 µM | ≥ 128 µg/mL and ≥ 244 µM | ≥ 128 µg/mL and ≥ 244 µM | ≥ 128 µg/mL and ≥ 244 µM | ≥ 128 µg/mL | 230 | 180 | 32 µg/mL and 60.9 µM | 16 µg/mL and 30.4 µM | 128 µg/mL and 244 µM | ≥ 128 µg/mL and ≥ 244 µM |  |  |
| CN(C)c1ccc(/C=C/C=C/c2ccc3ccccc3[n+]2C)cc1 [GC-VII-50] | 2 µg/mL and 4.6 µM | 16 µg/mL and 37.2 µM | > 128 µg/mL and > 297 µM | > 128 µg/mL and > 297 µM | 64 µg/mL and 149 µM | 170 | 70 | 0.25 µg/mL and 0.5 µM | 8 µg/mL and 18.5 µM | 0.5 µg/mL and 1.1 µM | > 128 µg/mL and > 297 µM |  | MIC [11]: 0.25 to 8 µg/mL |
| CN(C)c1ccc(/C=C/c2cccc(/C=C/c3ccc(N(C)C)cc3)[n+]2C)cc1 [PB4] | ≤ 0.125 µg/mL and ≤ 0.24 µM | ≤ 0.125 µg/mL and ≤ 0.24 µM | > 128 µg/mL and > 250 µM | 64 µg/mL and 125 µM | 2 µg/mL and 3.91 µM | 310 | 300 | 0.25 µg/mL and 0.49 µM | 0.5 µg/mL and 0.98 µM | 0.125 µg/mL and 0.24 µM | 64 µg/mL and 125 µM |  | Percentage of cell growth, PB4 0.2 µM ([6]; CaCo-2, PB4 alone 0.2 µM, 48 h): 72.7%; Reduction of PB4 MIC in combination with GC-VI-70 ([7]; S. aureus ATCC 12598): 2 logs; MIC of PB4 + GC-VI-70 combination ([7]; S. aureus ATCC 12598, PB4 fixed at its MIC for the strain, GC-VI-70 128 to 0.125 mg/L): 0.06 µg/mL; Reduction of PB4 MIC in combination with GC-VI-70 ([8]; E. faecalis ATCC 29212): 2 logs; MIC of PB4 + GC-VI-70 combination ([8]; E. faecalis ATCC 29212, PB4 fixed at its MIC for the strain, GC-VI-70 128 to 0.125 mg/L): 0.06 µg/mL; MIC [12]: 0.25 µg/mL |
| CC1(C)S[C@@H]2[C@H](NC(=O)[C@H](N)c3ccccc3)C(=O)N2[C@H]1C(=O)O [Ampicillin, ampicillin, reference compound] | 8 µg/mL (≈ 22.9 µM) | 32 µg/mL (≈ 91.6 µM) |  |  | 8 µg/mL (≈ 22.9 µM) |  |  | 0.125 µg/mL (≈ 0.358 µM) |  | 2 µg/mL (≈ 5.72 µM) | 2 µg/mL (≈ 5.72 µM) | no significant MIC reductions | MIC ([3]; P. aeruginosa ATCC 27853): 2 mg/L (≈ 5.72 µM); MIC ([3]; P. aeruginosa ATCC 27853, listed as AMP): >128 mg/L; MIC of antibiotic in combination with PB4 ([4]; K. pneumoniae ATCC 700603, sub-MIC PB4): 2 µg/mL; MIC ([4]; K. pneumoniae ATCC 700603): 8 mg/L (≈ 22.9 µM); MIC ([4]; K. pneumoniae ATCC 700603, listed as AMP): >128 mg/L; MIC of antibiotic in combination with PB4 ([8]; E. faecalis ATCC 29212, PB4 at fixed 0.125 μg/mL (0.24 μM), a quarter of an MIC value): 1 µg/mL; MIC ([8]; E. faecalis ATCC 29212): 4 mg/L (≈ 11.4 µM); MIC ([8]; E. faecalis ATCC 29212, listed as AMP): 0.25 mg/L (≈ 0.715 µM) |
| COc1ccc(/C=C/c2cccc(/C=C/c3ccc(OC)cc3)[n+]2C)cc1 [BCM6] | 8 µg/mL and 16.4 µM | 64 µg/mL and 132 µM | > 128 µg/mL and > 264 µM | > 128 µg/mL and > 264 µM | 128 µg/mL and 264 µM | 160 | 180 | 4 µg/mL and 8.23 µM | 32 µg/mL and 65.9 µM | 4 µg/mL and 8.2 µM | > 128 µg/mL and > 264 µM |  | IC50 ([14]; 48h): 12300 nM; Log(IC50) 48h [14]: 1.09; MIC [11]: 4 to 8 µg/mL |
| CC(=O)NC[C@H]1CN(c2ccc(N3CCOCC3)c(F)c2)C(=O)O1 [Linezolid, linezolid, reference compound] | 2 µg/mL (≈ 5.93 µM) |  |  |  |  |  |  | 4 µg/mL (≈ 11.9 µM) | 4 mg/L (≈ 11.9 µM) | 4 µg/mL (≈ 11.9 µM) |  | no significant MIC reductions |  |
| CN(C)c1ccc(/C=C/c2cccc[n+]2C)cc1 [BCM4] | 64 µg/mL and 175 µM | ≥ 128 µg/mL and ≥ 350 µM | > 128 µg/mL and ≥ 350 µM | > 128 µg/mL and ≥ 350 µM | ≥ 128 µg/mL and ≥ 350 µM | 720 | 100 | 64 µg/mL and 175 µM | ≥ 128 µg/mL and ≥ 350 µM | 128 µg/mL and 350 µM | > 128 µg/mL and ≥ 350 µM |  |  |
| C[n+]1c(/C=C/c2ccc(N(c3ccccc3)c3ccccc3)cc2)cccc1/C=C/c1ccc(N(c2ccccc2)c2ccccc2)cc1 [GC-VI-10] | 128 µg/mL and 169 µM | > 128 µg/mL and > 169 µM | > 128 µg/mL and > 169 µM | > 128 µg/mL and > 169 µM | > 128 µg/mL and > 169 µM | 1350 | 990 | 64 µg/mL and 84.4 µM | 4 µg/mL and 5.2 µM | 128 µg/mL and 169 µM | > 128 µg/mL and > 169 µM |  | MIC levels over all tested strains ([13]; summary in text over all tested strains): high MIC levels |
| C[C@@H](O)[C@H]1C(=O)N2C(C(=O)O)=C(SCCN=CN)C[C@H]12 [IMI, imipenem, reference compound] |  | 0.06 µg/mL (≈ 0.2 µM) | 0.25 mg/L (≈ 0.835 µM) | 0.03 mg/L (≈ 0.1 µM) | 0.06 µg/mL (≈ 0.2 µM) |  |  |  |  |  | 0.06 µg/mL (≈ 0.2 µM) | no significant MIC reductions |  |
| CC[C@H]1OC(=O)[C@H](C)[C@@H](O[C@H]2C[C@@](C)(OC)[C@@H](O)[C@H](C)O2)[C@H](C)[C@@H](O[C@@H]2O[C@H](C)C[C@H](N(C)C)[C@H]2O)[C@](C)(O)C[C@@H](C)C(=O)[C@H](C)[C@@H](O)[C@]1(C)O [Erythromycin, erythromycin] | 32 µg/mL (≈ 43.6 µM) |  |  |  |  |  |  | 0.5 µg/mL (≈ 0.681 µM) | 2 mg/L (≈ 2.73 µM) | 0.5 µg/mL (≈ 0.681 µM) |  | no significant MIC reductions | Percentage of cell growth, antibiotic ([6]; CaCo-2, antibiotic alone at MIC for E. faecalis ATCC 29212, 24 h): 148.2%; Percentage of cell growth, antibiotic ([6]; CaCo-2, antibiotic alone at MIC for E. faecalis ATCC 29212, 48 h): 269.0%; Percentage of cell growth, antibiotic ([6]; CaCo-2, antibiotic alone at sub-MIC (half-MIC), 24 h): 159.5%; Percentage of cell growth, antibiotic ([6]; CaCo-2, antibiotic alone at sub-MIC (half-MIC), 48 h): 280.6%; Percentage of cell growth, antibiotic + PB4 0.2 µM ([6]; CaCo-2, antibiotic at MIC + PB4 0.2 µM, 24 h): 133.6%; Percentage of cell growth, antibiotic + PB4 0.2 µM ([6]; CaCo-2, antibiotic at MIC + PB4 0.2 µM, 48 h): 117.5%; Percentage of cell growth, antibiotic + PB4 0.2 µM ([6]; CaCo-2, antibiotic at sub-MIC + PB4 0.2 µM, 24 h): 124.9%; Percentage of cell growth, antibiotic + PB4 0.2 µM ([6]; CaCo-2, antibiotic at sub-MIC + PB4 0.2 µM, 48 h): 155.8% |
| C[n+]1c(/C=C/c2ccc(-c3cccs3)s2)cccc1/C=C/c1ccc(-c2cccs2)s1 [GC-VI-70] | 4 µg/mL and 6.65 µM | 32 µg/mL and 53.2 µM | > 128 µg/mL and > 213 µM | > 128 µg/mL and > 213 µM | 128 µg/mL and 213 µM | 940 | 3760 | 16 µg/mL and 26.6 µM | 2 µg/mL and 3.32 µM | 16 µg/mL and 26.6 µM | > 128 µg/mL and > 213 µM |  | MIC values for Gram-negative bacteria [15]: high MIC values; IC50 ([6]; Caco-2, CaCo-2 cells, time not given, read-out: IC50 value on CaCo-2 cells): 320 nM; MIC [11]: 2 to 16 µg/mL |
